Experimental findings from US12324810B2, “3, 7-diamino-10H-phenothiazine salts and their use” (WisTa Laboratories Ltd., priority 2006, dated 2025) are described below.

pEC50: −log10 of the molar value. Like-named read-outs stand apart in the source and are kept apart here.

Data set [1] deals with T1, full-length tau (T40) in fibroblast cells (3T6) (Homo sapiens, UniProt P10636).
T1 construct: fibroblast cells (3T6) express full-length tau (“T40”) under control of an inducible promoter; low constitutive levels of the PHF-core tau fragment (12 kD fragment); expressed in transfected cells; host or cells: 3T6 fibroblast cells
T1 sequence (P10636 2-441 isoform P10636-8 limits assumed): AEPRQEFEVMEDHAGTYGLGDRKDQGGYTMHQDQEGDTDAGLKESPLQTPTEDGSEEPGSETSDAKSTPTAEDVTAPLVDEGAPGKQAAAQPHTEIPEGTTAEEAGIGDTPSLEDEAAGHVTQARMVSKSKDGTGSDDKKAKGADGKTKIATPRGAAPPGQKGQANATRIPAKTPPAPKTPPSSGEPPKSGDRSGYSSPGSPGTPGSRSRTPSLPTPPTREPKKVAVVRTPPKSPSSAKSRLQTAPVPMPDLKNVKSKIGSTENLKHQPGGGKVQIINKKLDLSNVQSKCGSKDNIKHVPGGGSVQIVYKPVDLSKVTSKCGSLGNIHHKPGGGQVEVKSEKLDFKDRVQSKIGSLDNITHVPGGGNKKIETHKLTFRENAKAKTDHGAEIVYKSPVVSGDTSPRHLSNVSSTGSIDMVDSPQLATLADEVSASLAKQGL
Nature of the data set: Cell-based assay for establishing EC50 (generation of the 12 kD fragment).
Description: Briefly, fibroblast cells (3T6) express full-length tau (“T40”) under control of an inducible promoter, and low constitutive levels of the PHF-core tau fragment (12 kD fragment). When T40 expression is induced, it undergoes aggregation-dependent truncation within the cell, N-terminally at ˜αα295 and C-terminally at ˜αα390, thereby producing higher levels of the 12 kD PHF-core domain fragment. […] Indeed, the quantitation of inhibitory activity of compounds with respect to proteolytic generation of the 12 kD fragment within cells can be described entirely in terms of the same parameters that describe inhibition of tau-tau binding in vitro. That is, the extent of proteolytic generation of the 12 kD fragment within cells is determined entirely by the extent of tau-tau binding through the repeat domain. The availability of the relevant proteases within the cell is non-limiting.
Results are expressed as the concentration at which there is a 50% inhibition of generation of the 12 kD fragment. This is referred to as the EC50 value.

The subject of the next data set is fibroblast cells (3T6). Type of data set: cell-based. Conditions: therapeutic index, RxI = LD50/EC50.
Data set [2] is described as follows: Partition coefficient, n-octanol/water, visible spectrophotometry. In kind it is physicochemical.
Protocol: In this study, aqueous solutions of selected compounds were shaken with n-octanol and aliquots concentrations in each phase determined by visible spectrophotometry. The log10P was then calculated for each compound, using the following formula:
The nature of data set [3]: Stability of the solid form in storage. Type of data set: physicochemical. As to the method: A batch of N,N,N′,N′-tetramethyl-10H-phenothiazine-3,7-diamine bis(hydrogen bromide) was prepared in April 2006 and analysed by NMR. […] The colour of the solid remained consistent over time. It appears that the molecule, in this form, is stable under these conditions over this time period.

Data set [4] is described as follows: Stability in aqueous solution (percent reduced form by absorbance at 610 nm and 665 nm). Type of data set: physicochemical. As to the method:
The compounds were weighed into universal containers. Enough water was added to yield a 1 mM solution, and the mixture stirred to dissolve the solid. The absorbance was determined at 610 nm and 665 nm for 50 μL samples (in triplicate) of each of the solutions at various time points. The initial time point taken was at 10 minutes as the compounds took time to dissolve completely. A UV/visible spectrum was also recorded at time points 20 minutes, 3 hours, and 18 hours.

[5] abbreviates: concentration at which there is a 50% inhibition of generation of the 12 kD fragment, 3T6 cells, read-out: EC50.

Turning to `CN(C)c1ccc2c(c1)Sc1cc(N(C)C)ccc1N2` [Compound B3, N,N,N′,N′-Tetramethyl-10H-phenothiazine-3,7-diamine bis(hydrogen chloride)], in data set [1] (setting [5]), the pEC50 was 6.30. Also, in the data set on fibroblast cells (3T6), the RxI came out at 88. The compound also yielded a Log10P in data set [2] of −0.13. In data set [3] (solid form, after 2 years in storage), the “state of solid form after storage” value is reported as “substantially reduced”.

Turning to `Nc1ccc2c(c1)Sc1cc(N)ccc1N2` [Compound B4, 3,7-Diamino-phenothiazine bis(hydrogen chloride)], the pEC50 in data set [1] (setting [5]) is 5.65.

For `CN(C)c1ccc2c(c1)Sc1cc(N(C)C)ccc1N2` [Compound B6, N,N,N′,N′-Tetramethyl-10H-phenothiazine-3,7-diamine bis(hydrogen iodide)], the pEC50 in data set [1] is 6.42. The same compound yielded a RxI in the data set on fibroblast cells (3T6) of 303. In data set [2], the Log10P is given as −0.498. In data set [4] (1 mM solution in water), the “time remaining substantially stable (>50% reduced form)” value is roughly 3 h. Further, in data set [4] (aqueous solution, compared to the chloride compound (Compound B3)), the rate of autoxidation entry is “slower”.

On to `CN(C)c1ccc2c(c1)Sc1cc(N(C)C)ccc1N2` [N,N,N′,N′-Tetramethyl-10H-phenothiazine-3,7-diamine bis(hydrogen bromide], for which the “stability of solid after storage (NMR, colour)” value in data set [3] (solid, 10 months of storage in the dark at room temperature) is on record as “stable”.
